# From ChEMBL document CHEMBL3585254, “Synthesis and structural characterization of natural benzofuranoids” (J Nat Prod, 2015)
# Test system: HL-60
# Assay: Growth inhibition of human HL60 cells
# Assay type: functional, cell-based
smiles,measurement,value
CC(C)=C1Oc2c(ccc(CC(C)O)c2CO)C1=O (stereo unspecified) [USTUSORANE A],IC50,130 nM
